Tests used:
[1] = system: malaria liver stage (LS) parasites; test: effect on sporozoite invasion and malaria liver stage development in hepatocytes; type: cell-based; conditions: compounds added at sporozoite invasion and during liver stage development; schizonts counted in 48 hours cultures; FIG. 5
[2] = system: primary mouse hepatocyte culture; test: toxicity on primary mouse hepatocyte culture; type: cell-based; conditions: tested at different doses (6, 25-100 μg/ml)

SMILES | effect on liver parasites / LS development (schizont number) [1] | toxicity on primary mouse hepatocyte culture [2]
CN1CNC(=O)NC(Cc2ccccc2)C1=O (stereo not shown) [4b] | inhibit significantly and repeatedly | non toxic
CN1CN(Cc2ccccc2)C(=O)NC(Cc2ccccc2)C1=O (stereo not shown) [8a] | inhibit significantly and repeatedly | non toxic

From US7777030B2, “Compositions and methods for the treatment and prevention of disease” (Centre National de la Recherge Scientifique (CNRS), priority 2005, dated 2010)
